Data reported in patent US20250170154A1 (GreenStone Biosciences, Inc., priority 2023, published 2025).

Columns and labels:
[1] = Conjugate formation in intestinal S9 incubations; format: in vitro ADME, human, rat, mouse
Experimental: The stability of compounds 1 and 2, and the control compound 7-hydroxycoumarin, were measured using human, rat, and mouse intestinal S9 fractions (Xenotech). Test compound working solutions were prepared by diluting 5 μL of 10 mM stock solutions in DMSO with 495 μL AN. S9 solutions were prepared by diluting the obtained S9 solutions to 1.0 mg/mL in 100 mM potassium phosphate buffer at pH 7.4 containing 10 mM D-saccharic acid-1,4-lactone. An Apricot automation workstation was used to add 100 μL/well of S9 solution to all reaction plates (Blank, T0, T5, T15, T30, T45, T60 and NCF60); 2 μL/well of compound working solutions were added to all 96-well reaction plates except the blank (T0, T5, T15, T30, T45, T60, and NCF60); 600 μL/well of stop solution (4° C. ACN containing 200 ng/mL tolbutamide and 200 ng/mL labetalol as internal standards) was added to the T0 reaction plate; all plates were pre-incubated at 37° C. for 10 minutes; a cofactor regenerating system (98 μL/well) was added, excluding the NCF60 plate which instead received 98 μL/well of 100 mM potassium phosphate buffer. All plates were then incubated at 37° C. To terminate reactions, 600 μL/well of stop solution was applied at specific end time points. After sealing and a 10-minute shaking, plates were centrifuged at 4000 rpm and 4° C. for 20 minutes. […]

[2] = Pharmacokinetics in the rat, dosing in solution; conditions: rat, in vivo, 25 mg/kg
[3] = system: chondrocyte pellets differentiated from human mesenchymal stem cells (MSCs); assay: Mini-joint model, IL-1β inflamed chondrocyte pellets, PCR analysis; format: cell-based; conditions: up to 5 μM with 0.01 ng/mL IL-1β for 3 days
Experimental: In the mini-joint model, human mesenchymal stem cells (MSCs) were differentiated into chondrocytes in pellet culture over a period of 3 weeks. The chondrocyte pellets were then maintained in a medium containing 0.5 ng/mL of TGF-β for 1 week. Inflammation was induced by treating the pellets with 1 ng/mL of IL-1β for 1 day. Following this, the pellets were treated with compound 2 at up to 5 μM together with 0.01 ng/mL of IL-1β to sustain the inflammatory environment for 3 days. At the conclusion of the treatment, the pellets were collected for PCR analysis.

In the case of `O=c1c(-c2ccc(O)cc2)coc2cc(OCOP(=O)(O)O)cc(O)c12` [Compound 2, ((5-Hydroxy-3-(4-hydroxyphenyl)-4-oxo-4H-chromen-7-yl)oxy)methyl dihydrogen phosphate], the “formation of glucuronidation, sulfation, and glutathione conjugates” value [1] is reported as “noticeable absence”, the Cmax ([2]; male, SD) is reported as about 30 ng/mL and the Tmax ([2]; male, SD) is reported as about 8 min. For the same compound, the “decline of plasma concentration of dosed compound” value [2] was “very rapid decline in concentration”, the COL2 expression [3] was “increasing” and the MMP12 expression [3] was “decreasing”. For the same compound, the TNF-α expression [3] was “decreasing” and the “chondrogenesis (expression of collagen A)” value [3] was “promote”.
